# In ChEMBL document CHEMBL2073994, “The multidrug resistance-associated protein 1 transports methoxychlor and protects the seminiferous epithelium from injury” (Toxicol Lett, 2003):
# Target: Multidrug resistance-associated protein 1 (Homo sapiens, UniProt P33527)
# Test: TP_TRANSPORTER: drug resistance in MRP1-expressing NIH/3T3 cells
# Format: functional, cell-based
# Settings: mouse, nih3t3
# Multidrug resistance-associated protein 1, sequence (P33527 whole entry): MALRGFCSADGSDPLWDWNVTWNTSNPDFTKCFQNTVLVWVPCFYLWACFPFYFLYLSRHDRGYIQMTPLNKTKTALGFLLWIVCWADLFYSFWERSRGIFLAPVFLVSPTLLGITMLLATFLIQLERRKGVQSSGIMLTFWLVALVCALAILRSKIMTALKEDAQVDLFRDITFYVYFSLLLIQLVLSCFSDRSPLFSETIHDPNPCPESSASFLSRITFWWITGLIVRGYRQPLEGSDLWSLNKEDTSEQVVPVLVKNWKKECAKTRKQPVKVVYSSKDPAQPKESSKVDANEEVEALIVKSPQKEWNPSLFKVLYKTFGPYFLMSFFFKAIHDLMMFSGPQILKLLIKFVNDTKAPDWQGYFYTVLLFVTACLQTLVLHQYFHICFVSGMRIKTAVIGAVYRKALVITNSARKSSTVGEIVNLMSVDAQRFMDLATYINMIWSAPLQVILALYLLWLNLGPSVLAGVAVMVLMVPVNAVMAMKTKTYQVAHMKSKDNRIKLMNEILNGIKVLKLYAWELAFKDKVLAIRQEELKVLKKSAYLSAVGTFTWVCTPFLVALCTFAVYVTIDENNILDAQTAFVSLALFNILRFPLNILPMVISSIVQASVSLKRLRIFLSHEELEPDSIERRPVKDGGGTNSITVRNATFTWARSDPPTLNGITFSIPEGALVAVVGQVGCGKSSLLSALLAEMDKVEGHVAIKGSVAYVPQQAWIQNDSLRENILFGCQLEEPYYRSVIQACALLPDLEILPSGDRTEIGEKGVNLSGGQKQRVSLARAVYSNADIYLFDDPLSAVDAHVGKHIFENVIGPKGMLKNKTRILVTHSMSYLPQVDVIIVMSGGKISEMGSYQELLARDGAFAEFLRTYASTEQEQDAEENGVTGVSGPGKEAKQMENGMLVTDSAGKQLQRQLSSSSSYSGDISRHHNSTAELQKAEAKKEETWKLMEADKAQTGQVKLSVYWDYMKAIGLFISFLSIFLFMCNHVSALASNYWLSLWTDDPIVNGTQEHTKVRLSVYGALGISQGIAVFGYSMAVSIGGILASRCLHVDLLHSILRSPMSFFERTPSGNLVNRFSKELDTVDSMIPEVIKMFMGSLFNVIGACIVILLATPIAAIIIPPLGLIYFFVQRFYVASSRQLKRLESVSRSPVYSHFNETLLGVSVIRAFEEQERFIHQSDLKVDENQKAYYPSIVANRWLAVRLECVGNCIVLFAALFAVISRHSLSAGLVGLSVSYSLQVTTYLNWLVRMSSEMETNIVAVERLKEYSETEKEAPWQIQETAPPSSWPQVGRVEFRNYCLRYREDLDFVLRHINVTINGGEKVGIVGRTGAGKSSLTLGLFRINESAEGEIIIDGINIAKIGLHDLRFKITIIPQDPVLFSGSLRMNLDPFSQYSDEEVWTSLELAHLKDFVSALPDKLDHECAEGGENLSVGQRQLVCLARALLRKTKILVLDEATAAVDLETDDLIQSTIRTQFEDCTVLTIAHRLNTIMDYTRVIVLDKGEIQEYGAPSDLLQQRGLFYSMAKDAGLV
row,Compound,Activity
1,COc1ccc(C(c2ccc(OC)cc2)C(Cl)(Cl)Cl)cc1 [METHOXYCHLOR],substrate []
2,CC(C)OC(=O)Nc1cccc(Cl)c1 [CHLORPROPHAM],substrate []
3,COc1cccc2c1C(=O)c1c(O)c3c(c(O)c1C2=O)C[C@@](O)(C(=O)CO)C[C@@H]3O[C@H]1C[C@H](N)[C@H](O)[C@H](C)O1 [DOXORUBICIN],substrate []
4,COP(=S)(OC)Oc1ccc([N+](=O)[O-])c(C)c1 [FENITROTHION],substrate []
